Laboratory results as given in patent EP0703239A1, “Aminomethylphosphonic and aminomethylphosphinic acids derivatives and their use in the treatment of degenerative articular diseases” (priority 1994, dated 1996).
Like-named read-outs stand apart in the source and are kept apart here.

Key:
[1] = test system: Rattenlebermikrosomen; experiment: Inhibition of microsomal lipid peroxidation (malondialdehyde/thiobarbituric acid); format: biochemical, Ratte; settings: rat liver microsomes, FeSO₄ start, 10 min 37°C; read-out: IC50 Mikrosomale Lipidperoxidation
Procedure: 4. Hemmung der Mikrosomalen Lipidperoxidation […]
Alle Schritte werden bei 0°C durchgeführt. Die Leber einer Ratte wird, um alles Hämoglobin zu entfernen, mit 0,9 % NaCl-Lösung gründlich gespült. Die grob zerkleinerte Leber wird dann in 10 mM Tris/HCl pH 7,4; 250 mM Saccharose (10 ml Puffer/g Leber) gepottert. Zunächst wird 5 Minuten bei 600xg zentrifugiert. Der Überstand wird dann 10 min bei 12000xg zentrifugiert und wird mit festem CaCl₂ (117,6 mg/100 ml) auf eine Konzentration von 8 mM eingestellt. Durch Zentrifugieren bei 25000 xg (15 min) wird ein Mikrosomenniederschlag gewonnen. Dieser Niederschlag wird im gleichen Volumen Puffer (10 mM Tris/HCl pH 7,4; 150 mM KCl) rehomogenisiert und erneut 15 min bei 25000 xg zentrifugiert.
Ein Testansatz besteht aus 20 µl Mikrosomen (100 mg/ml), vgl. oben, gelöst in Puffer (250 mM Tris/HCl pH 6,6, 750 mM KCl), 10 µl 50 mM MgCl₂, 10 µl 200 mM Isocitronensäure, 10 µl 4mM NADP (3,028 mg/ml Wasser), 10 µl 25 mM Niacinamid, 10 µl Isocitratdehydrogenase (1:100 verdünnt) und 20 µl Wasser oder Testsubstanz. Gestartet wird die Reaktion mit 10 µl 0,25 mM FeSO₄. Die Inkubation dauert 10 Minuten und erfolgt bei 37°C. Gestoppt wird mit 500 µl eiskalter 20 %iger Trichloressigsäure. Entstandenes Malondialdehyd wird durch Zugabe von 500 µl 0,67 %iger Thiobarbitursäure und 30 Minuten Inkubation bei 90°C in eine pinkfarbene Verbindung überführt, die bei 532 nm gemessen wird. Die Extinktion im Kontrollansatz ohne Prüfpräparat wird auf 0 % Hemmung gesetzt, während das völlige Verschwinden des Signals 100 % Hemmung bedeutet.

[2] = test system: Chondrozyten; experiment: IL-1-induced chondrocytic chondrolysis in chondrocyte agarose culture, 35S-sulfate incorporation; settings: agarose cell culture with 5 u/ml human rec. IL-1 alpha; factor relative to IL-1 treated control
[3] = test system: Chondrozyten; experiment: Stimulation of cartilage matrix (proteoglycan) synthesis in chondrocyte agarose culture, 35S-sulfate incorporation; format: cell-based, Rinder; settings: Chondrocyte, read-out: Stimulationsfaktor der Proteoglykansynthese
Source text: 1. Wirksamkeit in der Synthese-Stimulierung von Knorpel-Matrix, Prüfung in der Chondrozyten-Kultur
Zellen: Den Fußgelenken frisch geschlachteter Rinder werden der hyaline Knorpel entnommen, mit Pronase (Boehringer Mannheim) und Collagenase (Sigma), die native Matrix enzymatisch abgebaut, und die Chondrozyten in 1 %iger "low melting Agarose" in 24er Multiwell-Schalen in einer Zelldichte von 4 x 10⁶ pro well ausplattiert.
Medium: Komplettes Medium enthält HAM's F12 (Biochrom KG, Berlin) und 10 % foetales Kälberserum (Boehringer Mannheim), die Testsubstanz wird in Medium gelöst, üblicherweise in einer Konzentration von 10⁻⁵ M zugegeben und bei jedem Mediumwechsel erneut zugefügt.
Versuchsdurchführung: Die Behandlung erfolgt vom dritten bis zehnten Tag der Primärkultur, am 9. […] Die dissoziative Extraktion der Proteoglykane aus der Agarose-Schicht wird mit 8M Guanidinium-Hydrochlorid und beigefügten Proteinase-Inhibitoren (Sigma) unter Schütteln bei 4° C über 24 h durchgeführt. Der Überstand wird nach Zentrifugation über eine PD 10 ®Sephadex G 25 Säule in freies und inkorporiertes Sulfat getrennt, dessen Aktivität nach Aliquotierung im β-Szintillationscounter gemessen wird.
Auswertung: Der Parameter für die Matrixproduktion der Chondrozyten ist die Menge synthetisierter Proteoglykane, gemessen als Sulfatinkorporation in cpm. Aus vier Wells pro Gruppe wird der Mittelwert errechnet. Dieser wird durch den Mittelwert der unbehandelten Kontrolle dividiert, und ergibt somit einen Stimulationsfaktor, der bei Stimulation der Matrixsynthese größer 1 ist, bei Hemmung derselben durch Substanzwirkung kleiner 1, und bei unveränderter Matrixsynthese gleich 1 ist.
Als Standard wird Diacerein eingesetzt, das unter dem Markennamen "Artodar" von der Firma Proter bzw. […] Tabelle II

[4] = agarose cell culture, test substance usually 10⁻⁵ M, mean sulfate incorporation divided by untreated control (>1 = stimulation)

| SMILES | IC50 [1] [nM] | Stimulationsfaktor der Proteoglykansynthese [2] | fold induction at 10 µM [3] | fold induction at 10 µM [3, 4] |
| --- | --- | --- | --- | --- |
| COP(=O)(OC)C(Nc1ccc(Cl)cc1)c1cc(C(C)(C)C)c(O)c(C(C)(C)C)c1 (centres unmarked) [Beispiel 43] | 790 | 1,4 |  |  |
| CCOP(=O)(OCC)C(Nc1ccc2c(c1)CCCC2)c1cc(C(C)(C)C)c(O)c(C(C)(C)C)c1 (centres unmarked) [Beispiel 75] | 2900 |  |  |  |
| CCOP(=O)(OCC)C(Nc1ccccn1)c1cc(C(C)(C)C)c(O)c(C(C)(C)C)c1 (centres unmarked) [Beispiel 79] | 2300 | 1,2 | 1.6 |  |
| CCOP(=O)(OCC)C(NC1CCCCCC1)c1cc(C(C)(C)C)c(O)c(C(C)(C)C)c1 (centres unmarked) [Beispiel 11] | 970 |  |  |  |
| CCOP(=O)(OCC)C(Nc1ccccc1C(=O)OC)c1cc(C(C)(C)C)c(O)c(C(C)(C)C)c1 (centres unmarked) [Beispiel 65] | 730 |  | 1.3 |  |
| COP(=O)(OC)C(NCc1ccc2c(c1)OCO2)c1cc(C(C)(C)C)c(O)c(C(C)(C)C)c1 (centres unmarked) [Beispiel 29] | 690 | 1,5 |  |  |
| CCCN(CCC)C(c1cc(C(C)(C)C)c(O)c(C(C)(C)C)c1)P(=O)(OCC)OCC (centres unmarked) [Beispiel 21] | 6350 |  |  |  |
| CC(C)(C)c1cc(C(NCc2ccccc2)[PH](=O)O)cc(C(C)(C)C)c1O (centres unmarked) [Beispiel 27] |  | 1,2 |  |  |
| CCOP(=O)(OCC)C(Nc1ccc2ccccc2c1)c1cc(C(C)(C)C)c(O)c(C(C)(C)C)c1 (centres unmarked) [Beispiel 76] | 2050 |  |  |  |
| CCOP(=O)(OCC)C(NC1CCCCC1)c1cc(C(C)(C)C)c(O)c(C(C)(C)C)c1 (centres unmarked) [Beispiel 8] | 730 |  | 1.2 |  |
| CCOP(=O)(OCC)C(Nc1ccccc1)c1cc(C(C)(C)C)c(O)c(C(C)(C)C)c1 (centres unmarked) [Beispiel 37] |  | 1,5 |  |  |
| CCOP(=O)(OCC)C(Nc1cc(C(F)(F)F)ccc1F)c1cc(C(C)(C)C)c(O)c(C(C)(C)C)c1 (centres unmarked) [Beispiel 52] |  |  | 1.7 |  |
| CCCOP(=O)(OCCC)C(Nc1ccc(Cl)cc1)c1cc(C(C)(C)C)c(O)c(C(C)(C)C)c1 (centres unmarked) [Beispiel 44] | 1050 | 1,5 |  |  |
| CCCCOP(=O)(OCCCC)C(Nc1ccc(Cl)c(Cl)c1)c1cc(C(C)(C)C)c(O)c(C(C)(C)C)c1 (centres unmarked) [Beispiel 49] | > 10000 | 1,5 |  | 1.2 |
| CCOP(=O)(OCC)C(Nc1ccc(NC(=N)N)cc1)c1cc(C(C)(C)C)c(O)c(C(C)(C)C)c1 (centres unmarked) [Beispiel 73] | 670 |  |  |  |
| C=CCOP(=O)(OCC=C)C(Nc1ccc(Cl)cc1)c1cc(C(C)(C)C)c(O)c(C(C)(C)C)c1 (centres unmarked) [Beispiel 46] | 860 |  |  |  |
| CC(C)(C)c1cc(C(Nc2ccc(Cl)cc2)P(=O)(Oc2ccccc2)Oc2ccccc2)cc(C(C)(C)C)c1O (centres unmarked) [Beispiel 47] |  | 1,8 |  |  |
| CCOP(=O)(OCC)C(NCc1ccc(N)cc1)c1cc(C(C)(C)C)c(O)c(C(C)(C)C)c1 (centres unmarked) [Beispiel 34] | 700 |  | 1.2 |  |
| CCOP(=O)(OCC)C(NC1CCN(Cc2ccccc2)CC1)c1cc(C(C)(C)C)c(O)c(C(C)(C)C)c1 (centres unmarked) [Beispiel 18] | 2030 |  |  |  |
| CCOP(=O)(OCC)C(Nc1ccc(C(=O)OC)cc1)c1cc(C(C)(C)C)c(O)c(C(C)(C)C)c1 (centres unmarked) [Beispiel 66] | 750 |  |  |  |
| CCOP(=O)(OCC)C(NC(C)C(=O)OC)c1cc(C(C)(C)C)c(O)c(C(C)(C)C)c1 (centres unmarked) [Beispiel 19] |  | 4,3 |  |  |
| CC(C)(C)c1cc(C(Nc2ccccc2)[PH](=O)O)cc(C(C)(C)C)c1O (centres unmarked) [Beispiel 36] |  | 2,5 |  | 1.2 |
| CCCCOP(=O)(OCCCC)C(NC1CCCCC1)c1cc(C(C)(C)C)c(O)c(C(C)(C)C)c1 (centres unmarked) [Beispiel 10] | 9000 | 1,5 |  |  |

| SMILES | IC50 [1] [nM] | Stimulationsfaktor der Proteoglykansynthese [2] | fold induction at 10 µM [3] | fold induction at 10 µM [3, 4] |
| --- | --- | --- | --- | --- |
| CC(C)(C)c1cc(C(NCc2ccc3c(c2)OCO3)[PH](=O)O)cc(C(C)(C)C)c1O (centres unmarked) [Beispiel 28] |  | 5,5 |  |  |
| CCOP(=O)(OCC)C(Nc1ccc(Cl)c(Cl)c1)c1cc(C(C)(C)C)c(O)c(C(C)(C)C)c1 (centres unmarked) [Beispiel 48] | 2950 | 1,7 |  |  |
| CCOP(=O)(O)C(Nc1ccccn1)c1cc(C(C)(C)C)c(O)c(C(C)(C)C)c1 (centres unmarked) [Beispiel 78] |  |  | 1.4 |  |
| CCOP(=O)(OCC)C(Nc1ccc(C(F)(F)F)cc1)c1cc(C(C)(C)C)c(O)c(C(C)(C)C)c1 (centres unmarked) [Beispiel 51] |  |  | 1.6 |  |
| CC(=O)Oc1cccc2c1C(=O)c1c(OC(C)=O)cc(C(=O)O)cc1C2=O [Diacerein, reference compound] |  | 1,1 |  | 1 |
| CCOP(=O)(OCC)C(NCc1ccc2c(c1)OCO2)c1cc(C(C)(C)C)c(O)c(C(C)(C)C)c1 (centres unmarked) [Beispiel 30] |  | 1,5 | 1.4 |  |
| CCOP(=O)(OCC)C(NC1CC(C)(C)NC(C)(C)C1)c1cc(C(C)(C)C)c(O)c(C(C)(C)C)c1 (centres unmarked) [Beispiel 17] | 3180 |  |  |  |
| CCN(CC)CCNC(c1cc(C(C)(C)C)c(O)c(C(C)(C)C)c1)[PH](=O)O (centres unmarked) [Beispiel 14] |  | 1,2 |  |  |
| CC(C)(C)c1cc(C(Nc2ccc(Cl)cc2)[PH](=O)O)cc(C(C)(C)C)c1O (centres unmarked) [Beispiel 40] | 490 | 2,1 |  |  |
| CCOP(=O)(OCC)C(c1cc(C(C)(C)C)c(O)c(C(C)(C)C)c1)N(C)c1ccc(Cl)cc1 (centres unmarked) [Beispiel 54] | 2800 | 1,4 |  |  |
| CCOP(=O)(OCC)C(Nc1ccccc1Cl)c1cc(C(C)(C)C)c(O)c(C(C)(C)C)c1 (centres unmarked) [Beispiel 39] | 2400 |  |  |  |
| CCOP(=O)(OCC)C(Nc1ccc(OC)cc1)c1cc(C(C)(C)C)c(O)c(C(C)(C)C)c1 (centres unmarked) [Beispiel 57] |  | 1,4 | 1.5 |  |
| CCOP(=O)(OCC)C(NCc1ccc(OC)cc1)c1cc(C(C)(C)C)c(O)c(C(C)(C)C)c1 (centres unmarked) [Beispiel 32] |  | 1,4 |  |  |
| CC(C)(C)c1cc(C(Nc2ccc(Cl)cc2)P(C)(=O)O)cc(C(C)(C)C)c1O (centres unmarked) [Beispiel 41] |  | 3,5 |  |  |
| CC(C)(C)c1cc(C(Nc2ccc(Cl)cc2)P(=O)(O)O)cc(C(C)(C)C)c1O (centres unmarked) [Beispiel 4] | 710 |  |  |  |
| CCOP(=O)(OCC)C(Nc1ccc(OC)c(OC)c1)c1cc(C(C)(C)C)c(O)c(C(C)(C)C)c1 (centres unmarked) [Beispiel 58] |  | 1,2 | 2.5 |  |
| CCCCOP(=O)(OCCCC)C(Nc1ccc2ccccc2c1)c1cc(C(C)(C)C)c(O)c(C(C)(C)C)c1 (centres unmarked) [Beispiel 77] | 8700 | 1,3 |  |  |
| CCCOP(=O)(OCCC)C(NC1CCCCC1)c1cc(C(C)(C)C)c(O)c(C(C)(C)C)c1 (centres unmarked) [Beispiel 9] | 2100 |  |  |  |
| CCOP(=O)(OCC)C(NC(CC(C)C)C(=O)OC)c1cc(C(C)(C)C)c(O)c(C(C)(C)C)c1 (centres unmarked) [Beispiel 20] | 2100 |  |  |  |
| CCOP(=O)(OCC)C(Nc1ccc(S(N)(=O)=O)cc1)c1cc(C(C)(C)C)c(O)c(C(C)(C)C)c1 (centres unmarked) [Beispiel 68] | 2370 | 1,3 |  |  |
| CCOP(=O)(OCC)C(NCc1ccc(Cl)cc1)c1cc(C(C)(C)C)c(O)c(C(C)(C)C)c1 (centres unmarked) [Beispiel 33] |  | 2,2 |  |  |
| CCOP(=O)(OCC)C(Nc1ccc(F)cc1)c1cc(C(C)(C)C)c(O)c(C(C)(C)C)c1 (centres unmarked) [Beispiel 38] |  | 1,3 | 1.7 |  |
| CCOP(=O)(OCC)C(NCc1ccc(C#N)cc1)c1cc(C(C)(C)C)c(O)c(C(C)(C)C)c1 (centres unmarked) [Beispiel 35] |  | 3,9 |  |  |
